Data from patent publication US4710572A, “Histamine H1 antagonists” (American Home Products Corporation, priority 1986, dated 1987).
Where two headings read alike, the source gives them in different places.

Tests used:
[1] = target: T1, histamine H1 (Cavia porcellus, UniProt P31389); experiment: Drugs vs. histamine at 1 × 10^-6 M in guinea pig terminal ileum, comparison with -383 analogues; format: cell-based; design: A section of terminal ileum was removed and suspended in aerated 37° C; Tyrodes solution; from tissue; host or cells: terminal ileum of male Hartley guinea pigs
Source text: Tyrodes solution. […] Tissues were washed several times before repeating the procedure for the next concentration. A different set of 4 tissues was used for each drug.

[2] = target: T1, histamine H1; experiment: cell-based
Description: Subsequently, additional characterization of the compound herein exemplified was carried out in which complete histamine dose response curves were constructed first in the absence of test drug and then repeated in the presence of test drug at a specified concentration. A single experiment of this type allowed calculation of a pKB value from the rightward shift induced by the drug in the histaminic dose response curve, while three such experiments (at three different drug concentrations) allowed calculation of a pA2 value.

[3] = system: histamine-induced deaths in guinea pigs; experiment: Inhibition of histamine-induced deaths in guinea pigs; format: in vivo, guinea pig
Description: The compound exemplified herein, after a one hour pretreatment period, inhibited histamine-induced deaths in guinea pigs over the range of 1-5 mg/kg, with 100 percent effectiveness at the latter dose. At 18 hours post drug treatment the test compound retained 40 percent effectiveness at 10 mg/kg.

[4] = system: histamine-induced wheal formation in guinea pig skin; experiment: Histamine-induced wheal formation in guinea pig skin; format: in vivo
[5] = system: histamine-induced changes in bronchopulmonary parameters; experiment: Reversal of histamine-induced changes in bronchopulmonary parameters in the anesthetized guinea pig; format: in vivo
[6] = system: histamine-induced paw edema formation; experiment: Histamine-induced paw edema formation; conditions: in vivo
[7] = system: limbic D2 dopamine receptor; experiment: Limbic D2 dopamine receptor binding (Fields et al.); conditions: at 1 μM
[8] = Conditioned avoidance (shelf-jump), Herman et al.; format: in vivo; conditions: 40 mg/kg
[9] = Confinement motor activity, Tedeschi et al.; format: in vivo; conditions: 5 and 10 mg/kg i.p.
[10] = Modified Geller-Seifter experimentally-induced conflict test; conditions: in vivo
[11] = target: T1, histamine H1; experiment: Histamine-induced contraction of isolated guinea pig ileum, single drug concentration; format: cell-based; design: A section of terminal ileum was removed and suspended in aerated 37° C; Tyrodes solution; from tissue; host or cells: terminal ileum of male Hartley guinea pigs; conditions: histamine 1×10^-7 M; test drug 1×10^-6 M
Description: Fresh segments of terminal ileum immediately proximal to Peyer's patch, obtained from male Buckshire guinea pigs, were suspended in 37° C. Tyrode's solution in a tissue bath and aerated. The tissue segments were placed under one gram tension and allowed to equilibrate for one hour. Histamine was added to each tissue bath to a final concentration of 1×10^-7 M. The response was noted as grams tension. Test drug was added, in the presence of histamine, to each bath to a final concentration of 1×10^-6 M. The change in grams tension was noted and the percent reduction in grams tension calculated.

[12] = guinea pig ileum, histamine 1 × 10^-6 M, calculated from the table data, read-out: IC50 (inhibitory concentration50)

T1 sequence (P31389 whole entry): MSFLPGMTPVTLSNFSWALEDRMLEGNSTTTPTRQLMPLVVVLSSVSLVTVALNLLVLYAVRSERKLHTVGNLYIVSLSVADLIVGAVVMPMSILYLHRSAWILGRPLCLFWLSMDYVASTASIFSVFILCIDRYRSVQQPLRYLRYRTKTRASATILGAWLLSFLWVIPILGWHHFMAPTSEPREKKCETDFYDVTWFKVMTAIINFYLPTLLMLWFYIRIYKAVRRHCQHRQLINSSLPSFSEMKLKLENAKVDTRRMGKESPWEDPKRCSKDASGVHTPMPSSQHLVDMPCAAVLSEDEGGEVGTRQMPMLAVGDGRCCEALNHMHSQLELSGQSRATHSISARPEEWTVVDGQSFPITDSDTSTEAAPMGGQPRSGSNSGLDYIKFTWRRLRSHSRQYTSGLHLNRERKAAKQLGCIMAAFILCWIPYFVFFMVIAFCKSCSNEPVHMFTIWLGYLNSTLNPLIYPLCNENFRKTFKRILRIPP

Cn1c(=O)c2c(ncn2CCCCN2CCN(C(c3ccc(Cl)cc3)c3ccc(Cl)cc3)CC2)n(C)c1=O [-383 Dichloro compound, 7-[4-[4-(4',4"-dichlorodiphenylmethyl)piperazinyl-(1)]-n-butyl]theophylline, reference compound]
IC50 [1, 12]: 790 nM

Cn1c(=O)c2c(ncn2CCCN2CCN(C(c3ccc(F)cc3)c3ccc(F)cc3)CC2)n(C)c1=O [Difluoro compound, 7-[3-[4-bis(4-fluorophenyl)methyl]-1-piperazinyl]propyl-3,7-dihydro-1,3-dimethyl-1H-purine-2,6-dione]
Kb [2]: 6.31 nM | type of antagonism (shift of histamine dose response curve) ([2]; isolated guinea pig ileum): parallel rightward shifts with no decrease in the maximum response | potency relative to terfenadine ([2]; vs terfenadine): about five times as potent as terfenadine | effectiveness in inhibition of histamine-induced deaths ([3]; 5 mg/kg, one hour pretreatment): 100% | effectiveness in inhibition of histamine-induced deaths ([3]; 10 mg/kg, 18 hours post drug treatment): 40% | effectiveness against wheal formation ([4]; 1.7 mg/kg, 18 hour pretreatment): retained maximal effectiveness | suppression of wheal formation ([4]; highest dose (2.1 mg/kg), one hour pretreatment): Maximum suppression of wheal formation | reversal of histamine-induced changes in bronchopulmonary parameters [5]: reversal of histamine-induced changes in bronchopulmonary parameters | inhibition of histamine-induced paw edema formation [6]: inhibition of histamine-induced paw edema formation | inhibition of limbic D2 dopamine receptor binding [7]: 43% | conditioned avoidance (shelf-jump) activity [8]: inactive | sedative effect in confinement motor activity [9]: no sedative effect | effect in modified Geller-Seifter conflict test [10]: mild stimulation | antagonist action against the histamine-induced contractile response in the isolated guinea pig ileum [11]: potent, competitive antagonist action | IC50 [1]: 38 nM | potency relative to the -383 dichloro compound ([1]; ratio of IC50's): about 21 times | potency relative to the -383 monochloro compound ([1]; ratio of IC50's): 10 times

Cn1c(=O)c2c(ncn2CCCN2CCN(C(c3ccccc3)c3ccc(Cl)cc3)CC2)n(C)c1=O (stereo not shown) [-383 Monochloro compound, 7-[3-[4-p-chlorobenzhydrylpiperazinyl-(1)]-n-propyl]-theophylline, reference compound]
IC50 [1, 12]: 370 nM
